Literature values, collected in patent US7195789B2, “Non-fiber extract of psyllium with anti-tumorigenic effects and method for identifying the same” (Board of Trustees of Michigan State University, priority 2002, dated 2007).

Columns and labels:
ras protein (p21^ras) = settings: Na et al. 2000
WB-Ha-ras cells [1] = settings: WB-Ha-ras cell line; Na et al. 2000
connexin 43 = settings: Na et al. 2000
WB-Ha-ras cells [2] = settings: WB-Ha-ras cell line; Na et al. 2000; remark: listed apart in the source

In the case of `O=C(/C=C/c1ccc(O)c(O)c1)OCCc1ccccc1` [CAPE, phenylethyl ester of caffeic acid], the “protein level of p21^ras by Western blot” value (ras protein (p21^ras)) is given as “decreased”, the “inhibition of AIG” value (WB-Ha-ras cells [1]) is given as “inhibited AIG” and the “expression of hyperphosphorylated Cx43” value (connexin 43) is given as “restored”. For the same compound, the “restoration of GJIC” value (WB-Ha-ras cells [2]) was “restored GJIC”.
